Assay results taken from patent US20130252890A1, “6,7-DIHYDRO-5H-BENZO[7]ANNULENE DERIVATIVES, PROCESS FOR PREPARATION THEREOF, PHARMACEUTICAL PREPARATIONS COMPRISING THEM, AND THE USE THEREOF FOR PRODUCTION OF MEDICAMENTS” (BAYER INTELLECTUAL PROPERTY GMBH, priority 2010, published 2013).

These compounds were tested against T1, oestrogen receptor (ER) (Homo sapiens, UniProt P03372) (assay: Anti-oestrogenic action in MVLN cells (inhibition of estradiol-induced luciferase)). Details: inhibition of estradiol-induced luciferase signal, value of Ex. 44 is a mean value, read-out: Antioestrogenic action in vitro: MVLN transactivation antagonism IC50.
T1 construct: These MVLN cells express, along with the functional oestrogen receptor (ER), a reporter construct; endogenous in cells; host or cells: MVLN cells (MCF7 derivative carrying a luciferase reporter construct)
T1 sequence (P03372 1-595): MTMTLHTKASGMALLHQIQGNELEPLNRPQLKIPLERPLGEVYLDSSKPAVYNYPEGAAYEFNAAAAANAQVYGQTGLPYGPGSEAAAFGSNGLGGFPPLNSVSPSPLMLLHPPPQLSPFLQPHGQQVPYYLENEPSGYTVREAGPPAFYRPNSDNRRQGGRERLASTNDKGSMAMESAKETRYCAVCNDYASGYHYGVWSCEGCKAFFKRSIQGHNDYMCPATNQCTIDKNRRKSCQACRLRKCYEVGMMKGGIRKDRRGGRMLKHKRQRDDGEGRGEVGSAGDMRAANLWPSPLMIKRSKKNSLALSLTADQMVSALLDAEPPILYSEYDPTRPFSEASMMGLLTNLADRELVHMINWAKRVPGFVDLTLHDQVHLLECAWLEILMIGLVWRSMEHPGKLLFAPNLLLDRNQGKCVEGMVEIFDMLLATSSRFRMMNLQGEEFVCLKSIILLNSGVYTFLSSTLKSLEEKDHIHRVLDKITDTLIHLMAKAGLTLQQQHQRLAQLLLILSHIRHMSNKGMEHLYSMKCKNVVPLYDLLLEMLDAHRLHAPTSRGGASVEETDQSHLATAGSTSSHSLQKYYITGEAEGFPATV
Format: cell-based
Method in brief: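 MVLN cells, MCF7 breast cancer derivatives carrying functional ER plus an ER-activated luciferase reporter, were treated with compounds in the presence of estradiol. Anti-oestrogenic activity taken as inhibition of the estradiol-induced luciferase signal.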

| SMILES | IC50 |
| --- | --- |
| O=S(=O)(CCCN(CCCCCCC1=C(c2ccc(F)cc2)CCCc2cc(O)ccc21)Cc1ccc(F)cc1)CCCC(F)(F)C(F)(F)F [Example 58, 9-{6-[(4-Fluorobenzyl){3-[(4,4,5,5,5-pentafluoropentyl)sulphonyl]propyl}amino]hexyl}-8-(4-fluorophenyl)-6,7-dihydro-5H-benzo[7]annulen-3-ol] | 184 nM |
| O=C(O)CCN(CCCCCCC1=C(c2ccc(F)cc2)CCCc2cc(O)ccc21)CCCCS(=O)(=O)CCCC(F)(F)F [Example 95, N-{6-[8-(4-Fluorophenyl)-3-hydroxy-6,7-dihydro-5H-benzo[7]annulen-9-yl]hexyl}-N-{4-[(4,4,4-trifluorobutyl)sulphonyl]butyl}-beta-alanine] | 19 nM |
| CN(CCCCCCC1=C(c2ccc(F)cc2F)CCCc2cc(O)ccc21)CCCS(=O)(=O)CCCC(F)(F)F [Example 134, 8-(2,4-Difluorophenyl)-9-[6-(methyl{3-[(4,4,4-trifluorobutyl)sulphonyl]propyl}amino)hexyl]-6,7-dihydro-5H-benzo[7]annulen-3-ol] | 5 nM |
| O=S(=O)(CCCN(CCF)CCCCCCC1=C(c2ccc(F)cc2)CCCc2cc(O)ccc21)CCCC(F)(F)C(F)(F)F [Example 74, 9-{6-[(2-Fluoroethyl){3-[(4,4,5,5,5-pentafluoropentyl)sulphonyl]propyl}amino]hexyl}-8-(4-fluorophenyl)-6,7-dihydro-5H-benzo[7]annulen-3-ol] | 28 nM |
| CC(C)(O)CN(CCCCCCC1=C(c2cc(F)cc(F)c2)CCCc2cc(O)ccc21)CCC[S+]([O-])CCCC(F)(F)C(F)(F)F (stereo not shown) [Example 12, 8-(3,5-Difluorophenyl)-9-{6-[(2-hydroxy-2-methylpropyl){3-[(4,4,5,5,5-pentafluoropentyl)sulphinyl]propyl}amino]hexyl}-6,7-dihydro-5H-benzo[7]annulen-3-ol] | 15 nM |
| CC(C)(O)CN(CCCCCCC1=C(c2cc(F)cc(F)c2)CCCc2cc(O)ccc21)CCCS(=O)(=O)CCCC(F)(F)C(F)(F)F [Example 13, 8-(3,5-Difluorophenyl)-9-{6-[(2-hydroxy-2-methylpropyl){3-[(4,4,5,5,5-pentafluoropentyl)sulphonyl]propyl}amino]hexyl}-6,7-dihydro-5H-benzo[7]annulen-3-ol] | 20 nM |
| CN(CCCCCCC1=C(c2ccc(F)cc2)CCCc2c1ccc(O)c2F)CCCCS(=O)(=O)CCCC(F)(F)C(F)(F)F [Example 39, 4-Fluoro-8-(4-fluorophenyl)-9-[6-(methyl{4-[(4,4,5,5,5-pentafluoropentyl)sulphonyl]butyl}amino)hexyl]-6,7-dihydro-5H-benzo[7]annulen-3-ol] | 8 nM |
| CN(CCCCCCC1=C(c2ccc(F)cc2F)CCCc2cc(O)ccc21)CCCCCS(=O)(=O)CCC(F)(F)F [Example 133, 8-(2,4-Difluorophenyl)-9-[6-(methyl{5-[(3,3,3-trifluoropropyl)sulphonyl]pentyl}amino)hexyl]-6,7-dihydro-5H-benzo[7]annulen-3-ol] | 7 nM |
| CN(CCCCCCC1=C(c2ccc(F)cc2)CCCc2cc(O)ccc21)CCCS(=O)(=O)CCC(F)(C(F)(F)F)C(F)(F)F [Example 110, 8-(4-Fluorophenyl)-9-{6-[methyl(3-{[3,4,4,4-tetrafluoro-3-(trifluoromethyl)butyl]sulphonyl}propyl)amino]hexyl}-6,7-dihydro-5H-benzo[7]annulen-3-ol] | 73 nM |
| O=S(=O)(CCCN(CCCO)CCCCCCC1=C(c2ccc(F)cc2)CCCc2c1ccc(O)c2F)CCCC(F)(F)C(F)(F)F [Example 60, 4-Fluoro-8-(4-fluorophenyl)-9-{6-[(3-hydroxypropyl){3-[(4,4,5,5,5-pentafluoropentyl)sulphonyl]propyl}amino]hexyl}-6,7-dihydro-5H-benzo[7]annulen-3-ol] | 15 nM |
| CN(CCCCCCC1=C(c2ccc(F)cc2)CCCc2cc(O)ccc21)CCCS(=O)(=O)CCCCC(F)(F)C(F)(F)F [Example 79, 8-(4-Fluorophenyl)-9-[6-(methyl{3-[(5,5,6,6,6-pentafluorohexyl)sulphonyl]propyl}amino)hexyl]-6,7-dihydro-5H-benzo[7]annulen-3-ol] | 17 nM |
| CN(CCCCCCC1=C(c2ccc(F)cc2F)CCCc2cc(O)ccc21)CCCCS(=O)(=O)CCC(F)(F)C(F)(F)F [Example 146, 8-(2,4-Difluorophenyl)-9-[6-(methyl{4-[(3,3,4,4,4-pentafluorobutyl)sulphonyl]-butyl}amino)hexyl]-6,7-dihydro-5H-benzo[7]annulen-3-ol] | 15 nM |
| CN(CCCCCCC1=C(c2ccc(F)cc2)CCCc2cc(O)ccc21)CCCCS(=O)(=O)CCC(F)(C(F)(F)F)C(F)(F)F [Example 111, 8-(4-Fluorophenyl)-9-{6-[methyl(4-{[3,4,4,4-tetrafluoro-3-(trifluoromethyl)butyl]sulphonyl}butyl)amino]hexyl}-6,7-dihydro-5H-benzo[7]annulen-3-ol] | 33 nM |

The remaining compounds from weak to strong by IC50, led by results:

| IC50 | SMILES |
| --- | --- |
| 85 nM | CN(CCCCCCC1=C(c2ccc(F)cc2)CCCc2cc(O)ccc21)CCCS(=O)(=O)CCC(F)(F)F [Example 53, 8-(4-Fluorophenyl)-9-[6-(methyl{3-[(3,3,3-trifluoropropyl)sulphonyl]propyl}amino)hexyl]-6,7-dihydro-5H-benzo[7]annulen-3-ol] |
| 56 nM | CN(CCCCCCC1=C(c2ccc(F)c(F)c2)CCCc2cc(O)ccc21)CCCCCS(=O)(=O)CCC(F)(F)F [Example 71, 8-(3,4-Difluorophenyl)-9-[6-(methyl{5-[(3,3,3-trifluoropropyl)sulphonyl]pentyl}amino)hexyl]-6,7-dihydro-5H-benzo[7]annulen-3-ol] |
| 54 nM | CC(=O)N(CCCCCCC1=C(c2ccc(F)cc2)CCCc2cc(O)ccc21)CCCCS(=O)(=O)CCCC(F)(F)F [Example 89, N-{6-[8-(4-Fluorophenyl)-3-hydroxy-6,7-dihydro-5H-benzo[7]annulen-9-yl]hexyl}-N-{4-[(4,4,4-trifluorobutyl)sulphonyl]butyl}acetamide] |
| 40 nM | O=C(CN(CCCCCCC1=C(c2ccc(F)cc2)CCCc2cc(O)ccc21)CCCCS(=O)(=O)CCCC(F)(F)F)OCc1ccccc1 [Example 81, Benzyl-N-{6-[8-(4-fluorophenyl)-3-hydroxy-6,7-dihydro-5H-benzo[7]annulen-9-yl]hexyl}-N-{4-[(4,4,4-trifluorobutyl)sulphonyl]butyl}glycinate] |
| 20 nM | O=S(=O)(CCCCNCCCCCCC1=C(c2cc(F)cc(F)c2)CCCc2cc(O)ccc21)CCCC(F)(F)F [Example 67, 8-(3,5-Difluorophenyl)-9-[6-({4-[(4,4,4-trifluorobutyl)sulphonyl]butyl}amino)hexyl]-6,7-dihydro-5H-benzo[7]annulen-3-ol] |
| 17 nM | CN(CCCCCCC1=C(c2cc(F)cc(F)c2)CCCc2cc(O)ccc21)CCCCS(=O)(=O)CCCC(F)(F)C(F)(F)F [Example 9, 8-(3,5-Difluorophenyl)-9-[6-(methyl{4-[(4,4,5,5,5-pentafluoropentyl)sulphonyl]butyl}amino)hexyl]-6,7-dihydro-5H-benzo[7]annulen-3-ol] |
| 15 nM | CN(CCCCCCC1=C(c2ccc(F)cc2)CCCc2cc(O)c(F)cc21)CCCS(=O)(=O)CCCC(F)(F)C(F)(F)F [Example 99, 2-Fluoro-8-(4-fluorophenyl)-9-[6-(methyl{3-[(4,4,5,5,5-pentafluoropentyl)sulphonyl]propyl}amino)hexyl]-6,7-dihydro-5H-benzo[7]annulen-3-ol] |
| 13 nM | COC(=O)CN(CCCCCCC1=C(c2ccc(F)cc2)CCCc2cc(O)ccc21)CCCCS(=O)(=O)CCCC(F)(F)F [Example 82, Methyl-N-{6-[8-(4-fluorophenyl)-3-hydroxy-6,7-dihydro-5H-benzo[7]annulen-9-yl]hexyl}-N-{4-[(4,4,4-trifluorobutyl)sulphonyl]butyl}glycinate] |
| 10 nM | CN(CCCCCCC1=C(c2ccc(F)cc2)CCCc2cc(O)c(F)cc21)CCCS(=O)(=O)CCCCC(F)(F)F [Example 102, 2-Fluoro-8-(4-fluorophenyl)-9-[6-(methyl{3-[(5,5,5-trifluoropentyl)sulphonyl]propyl}amino)hexyl]-6,7-dihydro-5H-benzo[7]annulen-3-ol] |
| 9 nM | CN(CCCCCCC1=C(c2ccc(F)c(F)c2)CCCc2cc(O)ccc21)CCCC[S+]([O-])CCCC(F)(F)C(F)(F)F (stereo not shown) [Example 20, 8-(3,4-Difluorophenyl)-9-[6-(methyl{4-[(4,4,5,5,5-pentafluoropentyl)sulphinyl]butyl}amino)hexyl]-6,7-dihydro-5H-benzo[7]annulen-3-ol] |
| 5 nM | CN(CCCCCCC1=C(c2ccc(F)cc2F)CCCc2cc(O)ccc21)CCCS(=O)(=O)CCCCC(F)(F)F [Example 129, 8-(2,4-Difluorophenyl)-9-[6-(methyl{3-[(5,5,5-trifluoropentyl)sulphonyl]propyl}amino)hexyl]-6,7-dihydro-5H-benzo[7]annulen-3-ol] |
| 5 nM | O=S(=O)(CCCCN(CCO)CCCCCCC1=C(c2ccc(F)cc2)CCCc2cc(O)ccc21)CCCC(F)(F)F [Example 92, 8-(4-Fluorophenyl)-9-{6-[(2-hydroxyethyl){4-[(4,4,4-trifluorobutyl)sulphonyl]butyl}amino]hexyl}-6,7-dihydro-5H-benzo[7]annulen-3-ol] |
